Test results taken from patent US10023559B2 (Hoffmann-La Roche Inc., priority 2014, dated 2018).
pKi: −log10 of the molar value.

Columns and labels:
rat TAAR1 = rat TAAR1 (Rattus norvegicus (Rat), UniProt Q923Y9); experiment: Radioligand binding assay on rat TAAR1; settings: read-out: Ki(μM) rat; rat TAAR1, HEK-293 membranes, second value of cell pair mouse/rat
Description: Membrane Preparation and Radioligand Binding.
HEK-293 cells stably expressing rat TAAR1 were maintained at 37° C. and 5% CO2 in DMEM high glucose medium, containing fetal calf serum (10%, heat inactivated for 30 min at 56° C.), penicillin/streptomycin (1%), and 375 μg/ml geneticin (Gibco). Cells were released from culture flasks using trypsin/EDTA, harvested, washed twice with ice-cold PBS (without Ca^2+ and Mg^2+), pelleted at 1,000 rpm for 5 min at 4° C., frozen and stored at −80° C. Frozen pellets were suspended in 20 ml HEPES-NaOH (20 mM, pH 7.4) containing 10 mM EDTA and homogenized with a Polytron (PT 6000, Kinematica) at 14,000 rpm for 20 s. The homogenate was centrifuged at 48,000×g for 30 min at 4° C. Subsequently, the supernatant was removed and discarded, and the pellet resuspended in 20 ml HEPES-NaOH (20 mM, pH 7.4) containing 0.1 mM EDTA using the Polytron (20 s at 14,000 rpm). This procedure was repeated and the final pellet resuspended in HEPES-NaOH containing 0.1 mM EDTA and homogenized using the Polytron. Typically, aliquots of 2 ml membrane portions were stored at −80° C. With each new membrane batch the dissociation constant (Kd) was determined via a saturation curve. […] Nonspecific binding was defined as the amount of [H]—(S)-4-[(ethyl-phenyl-amino)-methyl]-4,5-dihydro-oxazol-2-ylamine bound in the presence of 10 M unlabeled ligand. All compounds were tested at a broad range of concentrations (10 pM to 10 μM) in duplicates. […] The 96 deep well plates were incubated for 1 hr at 4° C. Incubations were terminated by rapid filtration through Unifilter-96 plates (Packard Instrument Company) and glass filters GF/C (Perkin Elmer) presoaked for 1 hr in polyethylenimine (0.3%) and washed 3 times with 1 ml of cold binding buffer. After addition of 45 μl of Microscint 40 (PerkinElmer) the Unifilter-96 plate was sealed and after 1 hr the radioactivity counted using a TopCount Microplate Scintillation Counter (Packard Instrument Company).

mouse TAAR1 = mouse TAAR1 (Mus musculus (Mouse), UniProt Q923Y8); experiment: Radioligand binding assay on mouse TAAR1
Chain of mouse TAAR1 (Q923Y8 whole entry): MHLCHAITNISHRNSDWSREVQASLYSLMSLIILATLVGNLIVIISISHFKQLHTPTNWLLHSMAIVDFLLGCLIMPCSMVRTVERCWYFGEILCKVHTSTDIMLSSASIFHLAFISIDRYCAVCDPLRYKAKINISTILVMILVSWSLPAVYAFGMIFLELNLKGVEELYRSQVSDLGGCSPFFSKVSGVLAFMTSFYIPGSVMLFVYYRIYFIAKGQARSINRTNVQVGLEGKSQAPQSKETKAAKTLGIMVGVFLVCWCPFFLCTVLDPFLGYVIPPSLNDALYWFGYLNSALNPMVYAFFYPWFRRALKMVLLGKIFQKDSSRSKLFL

Chain of rat TAAR1 (Q923Y9 whole entry): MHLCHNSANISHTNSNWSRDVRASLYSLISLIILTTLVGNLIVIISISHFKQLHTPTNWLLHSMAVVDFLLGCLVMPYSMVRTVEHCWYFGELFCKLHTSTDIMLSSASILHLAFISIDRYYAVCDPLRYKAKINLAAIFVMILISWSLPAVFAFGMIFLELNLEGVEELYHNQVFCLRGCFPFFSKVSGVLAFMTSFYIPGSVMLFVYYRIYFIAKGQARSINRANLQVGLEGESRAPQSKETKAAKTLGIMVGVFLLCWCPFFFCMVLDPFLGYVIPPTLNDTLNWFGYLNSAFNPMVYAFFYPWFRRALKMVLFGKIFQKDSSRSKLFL

Row | Ki (rat TAAR1) | pKi (mouse TAAR1) | Structure (SMILES)
1 | 0.038 µM | 8.00 | O=C(Nc1ccc(Cl)cc1)c1ccc(OC2CNC2)cc1 [Example 23, 4-(azetidin-3-yloxy)-N-(4-chlorophenyl)benzamide]
2 | 0.0943 µM | 7.84 | Cc1[nH]nc(C(=O)Nc2ccc(OC3CNC3)cc2)c1Br [Example 48, N-[4-(azetidin-3-yloxy)phenyl]-4-bromo-3-methyl-1H-pyrazole-5-carboxamide]
3 | 0.0113 µM | 8.52 | O=C(Nc1ccc(OC2CNC2)c(F)c1)c1[nH]nc(C2CC2)c1Cl [Example 25, N-[4-(azetidin-3-yloxy)-3-fluoro-phenyl]-4-chloro-3-cyclopropyl-1H-pyrazole-5-carboxamide]
4 | 0.291 µM | 5.86 | FC(F)(c1ccc(Br)cc1)C1CNC1 [Example 49, 3-[(4-bromophenyl)-difluoro-methyl]azetidine]
5 | 0.0016 µM | 8.72 | O=C(Nc1ccc(CC2(F)CNC2)cc1)Nc1ccc(C(F)(F)F)cc1 [Example 105, 1-[4-[(3-fluoroazetidin-3-yl)methyl]phenyl]-3-[4-(trifluoromethyl)phenyl]urea]
6 | 0.0026 µM | 9.15 | O=C(Nc1ccc(Cl)c(C(F)(F)F)c1)c1ccc(OC2CNC2)cc1 [Example 37, 4-(azetidin-3-yloxy)-N-(4-chloro-3-(trifluoromethyl)phenyl)benzamide]
7 | 0.0026 µM | 8.60 | O=C(Nc1ccc(CC2(F)CNC2)cc1)Nc1cccc(Cl)c1 [Example 107, 1-(3-chlorophenyl)-3-[4-[(3-fluoroazetidin-3-yl)methyl]phenyl]urea]
8 | 0.0468 µM | 8.41 | CCc1n[nH]c(C(=O)Nc2ccc(OC3CNC3)cc2)c1Br [Example 47, N-[4-(azetidin-3-yloxy)phenyl]-4-bromo-3-ethyl-1H-pyrazole-5-carboxamide]
9 | 0.0156 µM | 7.55 | O=C(Nc1ccc(C[C@@H]2NC[C@@H]2F)cc1)c1cnc(C(F)(F)F)nc1 [Example 130, N-(4-(((2S,3S)-3-fluoroazetidin-2-yl)methyl)phenyl)-2-(trifluoromethyl)pyrimidine-5-carboxamide]
10 | 0.0969 µM | 7.14 | Cn1nc(C(F)(F)F)cc1C(=O)Nc1ccc(OC2CNC2)cc1 [Example 17, N-[4-(azetidin-3-yloxy)phenyl]-2-methyl-5-(trifluoromethyl)pyrazole-3-carboxamide]
11 | 0.0115 µM | 8.12 | CC(C)c1n[nH]c(C(=O)Nc2ccc(OC3CNC3)cc2)c1Cl [Example 33, N-[4-(azetidin-3-yloxy)phenyl]-4-chloro-3-isopropyl-1H-pyrazole-5-carboxamide]
12 | 0.005 µM | 7.76 | CCc1n[nH]c(C(=O)Nc2ccc(C=C3CNC3)c(F)c2)c1C [Example 88, N-(4-(azetidin-3-ylidenemethyl)-3-fluorophenyl)-3-ethyl-4-methyl-1H-pyrazole-5-carboxamide]
13 | 0.0138 µM | 7.57 | O=C(Nc1ccc(CC2CNC2)cc1)Nc1cccc(Cl)c1 [Example 115]
14 | 0.0239 µM | 8.72 | COc1ccc(NC(=O)Nc2ccc(CC3(F)CNC3)cc2)cc1 [Example 106, 1-[4-[(3-fluoroazetidin-3-yl)methyl]phenyl]-3-(4-methoxyphenyl)urea]
15 | 0.023 µM | 8.59 | O=C(Nc1ccc(C=C2CNC2)cc1)c1ccc(Cl)nc1 [Example 65, N-[4-(azetidin-3-ylidenemethyl)phenyl]-6-chloro-pyridine-3-carboxamide]
16 | 0.0615 µM | 7.82 | O=C(Nc1ccc(CC2CNC2)cc1)c1ccc(Cl)nc1 [Example 64, N-[4-(azetidin-3-ylmethyl)phenyl]-6-chloro-pyridine-3-carboxamide]
17 | 0.0466 µM | 8.51 | O=C(Nc1ccc(SC2CNC2)cc1)c1[nH]nc(C2CC2)c1Cl [Example 35, N-[4-(azetidin-3-ylsulfanyl)phenyl]-4-chloro-3-cyclopropyl-1H-pyrazole-5-carboxamide]
18 | 0.156 µM | 6.80 | COc1ccc(NC(=O)Nc2ccc(CC3CNC3)cc2)cc1 [Example 114, 1-[4-(azetidin-3-ylmethyl)phenyl]-3-(4-methoxyphenyl)urea]
19 | 0.0009 µM | 7.78 | CCc1n[nH]c(C(=O)Nc2cc(F)c(C=C3CNC3)c(F)c2)c1C [Example 83, N-(4-(azetidin-3-ylidenemethyl)-3,5-difluorophenyl)-3-ethyl-4-methyl-1H-pyrazole-5-carboxamide]
20 | 0.0021 µM | 9.05 | O=C(Nc1ccc(OC2CNC2)cc1)c1[nH]nc(-c2ccc(Cl)cc2)c1Cl [Example 34, N-[4-(azetidin-3-yloxy)phenyl]-4-chloro-3-(4-chlorophenyl)-1H-pyrazole-5-carboxamide]
21 | 0.0038 µM | 8.74 | O=C(Nc1ccc(C=C2CNC2)c(F)c1)c1ccc(Cl)nc1 [Example 86, N-(4-(azetidin-3-ylidenemethyl)-3-fluorophenyl)-6-chloronicotinamide]
22 | 1.16 µM | 8.01 | CCOc1ccc(C(=O)Nc2ccc(C[C@H]3NC[C@H]3F)cc2)cn1 [Example 122, 6-ethoxy-N-(4-(((2R,3R)-3-fluoroazetidin-2-yl)methyl)phenyl)nicotinamide]
23 | 0.633 µM | 7.13 | Cc1ncc(C(=O)Nc2ccc(OC3CNC3)cc2)cn1 [Example 16, N-[4-(azetidin-3-yloxy)phenyl]-2-methyl-pyrimidine-5-carboxamide]
24 | 0.0099 µM | 8.16 | O=C(Nc1ccc(CC2(F)CNC2)cc1)c1cnc(C(F)(F)F)cn1 [Example 70, N-[4-[(3-fluoroazetidin-3-yl)methyl]phenyl]-5-(trifluoromethyl)pyrazine-2-carboxamide]
25 | 0.0238 µM | 7.79 | O=C(Nc1ccc(OC2CNC2)c(F)c1)c1cnc(C(F)(F)F)nc1 [Example 26, N-[4-(azetidin-3-yloxy)-3-fluoro-phenyl]-2-(trifluoromethyl)pyrimidine-5-carboxamide]
26 | 0.0392 µM | 8.46 | CCc1n[nH]c(C(=O)Nc2ccc(OC3CNC3)cc2)c1Cl [Example 41, N-[4-(azetidin-3-yloxy)phenyl]-4-chloro-3-ethyl-1H-pyrazole-5-carboxamide]

Row | Structure (SMILES) | Ki (rat TAAR1) | pKi (mouse TAAR1)
27 | CCOc1ccc(C(=O)Nc2ccc(OC3CNC3)cc2)nn1 [Example 76, N-[4-(azetidin-3-yloxy)phenyl]-6-ethoxy-pyridazine-3-carboxamide] | 0.167 µM | 7.27
28 | Cn1nc(C(F)(F)F)c(Cl)c1C(=O)Nc1ccc(OC2CNC2)cc1 [Example 29, N-[4-(azetidin-3-yloxy)phenyl]-4-chloro-2-methyl-5-(trifluoromethyl)pyrazole-3-carboxamide] | 0.0503 µM | 7.54
29 | F[C@@H]1CN[C@@H]1Cc1ccccc1 [Example 92, (2R,3R)-2-benzyl-3-fluoroazetidine] | 0.607 µM | 6.61
30 | O=C(Nc1ccc(C[C@H]2CCN2)cc1)c1cnc(C(F)(F)F)nc1 [Example 80, N-[4-[[(2S)-azetidin-2-yl]methyl]phenyl]-2-(trifluoromethyl)pyrimidine-5-carboxamide] | 0.026 µM | 7.57
31 | O=C(Nc1ccc(C[C@H]2CCN2)cc1)c1ccc(Cl)nc1 [Example 81, N-[4-[[(2S)-azetidin-2-yl]methyl]phenyl]-6-chloro-pyridine-3-carboxamide] | 0.0202 µM | 8.39
32 | COc1cc(C(=O)Nc2ccc(C[C@@H]3NC[C@@H]3F)cc2)ccn1 [Example 127, N-(4-(((2S,3S)-3-fluoroazetidin-2-yl)methyl)phenyl)-2-methoxyisonicotinamide] | 0.133 µM | 8.42
33 | O=C(Nc1ccc(OC2CNC2)cc1F)c1cnc(C(F)(F)F)nc1 [Example 39, N-[4-(azetidin-3-yloxy)-2-fluoro-phenyl]-2-(trifluoromethyl)pyrimidine-5-carboxamide] | 0.476 µM | 7.20
34 | O=C(Nc1ccc(C(F)(F)C2CNC2)cc1)c1ccc(Cl)cc1 [Example 51, N-[4-[azetidin-3-yl(difluoro)methyl]phenyl]-4-chloro-benzamide] | 0.0515 µM | 8.96
35 | CCOc1ccc(C(=O)Nc2ccc(CC3(F)CNC3)cc2)nn1 [Example 67, 6-ethoxy-N-[4-[(3-fluoroazetidin-3-yl)methyl]phenyl]pyridazine-3-carboxamide] | 0.0968 µM | 7.53
36 | O=C(Nc1ccc(CC2(F)CNC2)cc1)c1cnc(OCC(F)(F)F)cn1 [Example 57, N-[4-[(3-fluoroazetidin-3-yl)methyl]phenyl]-5-(2,2,2-trifluoroethoxy)pyrazine-2-carboxamide] | 0.0369 µM | 7.83
37 | O=C(Nc1ccc(C[C@@H]2CCN2)cc1)c1ccc(Cl)nc1 [Example 79, N-[4-[[(2R)-azetidin-2-yl]methyl]phenyl]-6-chloro-pyridine-3-carboxamide] | 0.348 µM | 8.00
38 | O=C(Nc1ccc(OC2CNC2)cc1)c1nn(CC(F)(F)F)cc1Cl [Example 21, N-[4-(azetidin-3-yloxy)phenyl]-4-chloro-1-(2,2,2-trifluoroethyl)pyrazole-3-carboxamide] | 0.0207 µM | 6.19
39 | O=C(Nc1ccc(OC2CNC2)cc1)c1[nH]nc(C2CC2)c1F [Example 42, N-[4-(azetidin-3-yloxy)phenyl]-3-cyclopropyl-4-fluoro-1H-pyrazole-5-carboxamide] | 0.113 µM | 7.82
40 | O=C(Nc1ccc(SC2CNC2)cc1)Nc1cccc(Cl)c1 [Example 112, 1-[4-(azetidin-3-ylsulfanyl)phenyl]-3-(3-chlorophenyl)urea] | 0.0111 µM | 7.95
